Laboratory results published in US12606561B2, “Substituted pyrazolo[1,5-a][1,3,5]triazines as CDK inhibitors” (QURIENT CO., LTD., priority 2018, dated 2026).

Columns and labels:
Assay type in all cases: biochemical
CDK5/p25 = target: T1, CDK5/p25 (Homo sapiens, UniProt Q00535); assay: Enzymatic assay for CDK5 (LANCE Ultra kinase assay, FRET based); conditions: ATP at Km
T1 construct: purchased Invitrogen PR8543B
Procedure: (§1) Enzymatic Binding Assay Protocol for CDK1, CDK2, CDK5 and CDK7
(§2) Inhibition activity of the respective compound on CDK kinase under Km value of ATP was tested in FRET based The LANCE® Ultra kinase assay (Perkin Elmer), which uses a ULight™-labeled peptide substrate and an appropriate Europium-labeled anti-phospho-antibody. Test compounds were made with DMSO solutions, and then 4-fold serial dilutions for 8 doses were prepared using automated liquid handler (POD™ 810, Labcyte) and 80 nL/well of diluted compound solutions were added into the 384-well plates (Greiner, Cat #784075). And then 68 nM of ULight-MBP peptide (Perkin Elmer, Cat #TRF0109-M) and 5 ul/well of ATP (Sigma, Cat #A7699) were added to the plate. After 1 min centrifugation at 1000 rpm, purified CDKs/Cyclin complex were added with the following concentrations respectively. 24 uM for CDK1/Cyclin B (Invitrogen, Cat #PR4768C), 22 uM for CDK2/Cyclin A (Invitrogen, Cat #PV6290), 10 uM for CDK5/p25 (Invitrogen, Cat #PR8543B) and […] for CDK7/Cyclin H/MNAT1 (Invitrogen, Cat #PR6749B) were added to each corresponding plate for CDK1, CDK2, CDK5 and CDK7. Incubate at 23° C. for 60 min and then Eu-labeled anti-phospho-Myelin Basic Protein (PE, Cat #TRF0201-M) and EDTA (Invitrogen, Cat #15575038) mixture in Lance Detection Buffer (Perkin Elmer, Cat #CR97100) was added in each well. After additional incubation at 23° C. for 60 min, test articles were measured the fluorescence using Envision leader (Perkin Elmer, USA) [Laser as excitation light; […] as the first and the second emission filter]. Data were analyzed using XL Fit software.

CDK1/Cyclin B = target: T2, CDK1/Cyclin B (Homo sapiens, UniProt P06493); assay: Enzymatic assay for CDK1 (LANCE Ultra kinase assay, FRET based); conditions: ATP at Km; read-out: CDK1 enzymatic activity IC50
T2 construct: purchased Invitrogen PR4768C
T2 sequence (P06493 whole entry): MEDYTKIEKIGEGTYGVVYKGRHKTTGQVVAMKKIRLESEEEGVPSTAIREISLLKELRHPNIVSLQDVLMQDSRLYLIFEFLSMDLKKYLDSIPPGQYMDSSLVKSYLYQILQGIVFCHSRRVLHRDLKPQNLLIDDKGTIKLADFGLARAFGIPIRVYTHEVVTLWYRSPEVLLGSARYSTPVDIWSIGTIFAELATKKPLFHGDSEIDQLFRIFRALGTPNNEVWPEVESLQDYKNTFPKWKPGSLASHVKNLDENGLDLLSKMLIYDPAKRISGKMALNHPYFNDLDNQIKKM
T2 sequence (P14635 whole entry partner): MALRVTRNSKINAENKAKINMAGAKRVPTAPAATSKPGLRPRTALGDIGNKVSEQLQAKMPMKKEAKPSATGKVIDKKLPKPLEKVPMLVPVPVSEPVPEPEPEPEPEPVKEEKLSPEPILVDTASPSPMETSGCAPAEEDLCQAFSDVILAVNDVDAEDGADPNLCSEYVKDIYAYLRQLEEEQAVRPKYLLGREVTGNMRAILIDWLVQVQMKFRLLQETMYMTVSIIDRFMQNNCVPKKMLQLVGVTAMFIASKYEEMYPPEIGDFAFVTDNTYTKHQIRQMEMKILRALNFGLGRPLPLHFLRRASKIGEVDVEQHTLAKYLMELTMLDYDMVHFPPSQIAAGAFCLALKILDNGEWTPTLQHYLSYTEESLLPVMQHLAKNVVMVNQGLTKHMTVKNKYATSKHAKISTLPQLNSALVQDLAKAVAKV
Procedure: as §1
(§3) Inhibition activity of the respective compound on CDK kinase under Km value of ATP was tested in FRET based The LANCE® Ultra kinase assay (Perkin Elmer), which uses a ULight™-labeled peptide substrate and an appropriate Europium-labeled anti-phospho-antibody. […] After 1 min centrifugation at 1000 rpm, purified CDKs/Cyclin complex were added with the following concentrations respectively. […] Data were analyzed using XL Fit software.

CDK2/Cyclin A = target: T3, CDK2/Cyclin A (Homo sapiens, UniProt P24941); assay: Enzymatic assay for CDK2 (LANCE Ultra kinase assay, FRET based); conditions: ATP at Km
T3 construct: purchased Invitrogen PV6290
Procedure: as §1, §2

CDK7/Cyclin H/MNAT1 = target: T4, CDK7/Cyclin H/MNAT1 (Homo sapiens, UniProt P50613); assay: Enzymatic assay for CDK7 (LANCE Ultra kinase assay, FRET based); conditions: for IC50: ATP at Km
T4 construct: purchased Invitrogen PR6749B
T4 sequence (P50613 whole entry): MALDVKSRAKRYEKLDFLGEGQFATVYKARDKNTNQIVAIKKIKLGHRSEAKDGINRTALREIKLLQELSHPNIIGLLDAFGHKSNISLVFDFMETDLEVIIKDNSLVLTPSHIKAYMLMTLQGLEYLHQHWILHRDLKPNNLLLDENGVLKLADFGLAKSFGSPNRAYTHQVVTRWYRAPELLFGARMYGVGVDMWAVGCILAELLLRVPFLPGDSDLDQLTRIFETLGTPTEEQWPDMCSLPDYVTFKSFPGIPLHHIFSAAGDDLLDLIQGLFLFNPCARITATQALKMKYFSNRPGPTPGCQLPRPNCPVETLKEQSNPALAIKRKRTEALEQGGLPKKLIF
T4 sequence (P51946 whole entry partner): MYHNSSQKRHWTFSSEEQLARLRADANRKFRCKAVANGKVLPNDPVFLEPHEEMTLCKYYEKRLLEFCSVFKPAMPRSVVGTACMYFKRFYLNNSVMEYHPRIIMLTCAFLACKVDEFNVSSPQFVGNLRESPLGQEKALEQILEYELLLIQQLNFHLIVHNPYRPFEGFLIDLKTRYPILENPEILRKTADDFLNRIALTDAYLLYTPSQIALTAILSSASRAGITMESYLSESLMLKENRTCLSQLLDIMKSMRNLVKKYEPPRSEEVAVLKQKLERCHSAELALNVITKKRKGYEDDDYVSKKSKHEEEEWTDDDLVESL
T4 sequence (P51948 whole entry partner): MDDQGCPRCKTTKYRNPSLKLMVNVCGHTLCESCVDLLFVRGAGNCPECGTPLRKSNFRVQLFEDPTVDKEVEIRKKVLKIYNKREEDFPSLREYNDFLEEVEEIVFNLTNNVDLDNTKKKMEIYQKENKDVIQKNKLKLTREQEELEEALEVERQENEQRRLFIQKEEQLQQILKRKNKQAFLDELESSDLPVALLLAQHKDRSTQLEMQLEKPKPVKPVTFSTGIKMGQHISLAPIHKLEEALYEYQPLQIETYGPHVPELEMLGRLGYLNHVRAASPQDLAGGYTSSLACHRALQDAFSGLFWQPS
Procedure: as §1, §3

T1 sequence (Q00535 whole entry): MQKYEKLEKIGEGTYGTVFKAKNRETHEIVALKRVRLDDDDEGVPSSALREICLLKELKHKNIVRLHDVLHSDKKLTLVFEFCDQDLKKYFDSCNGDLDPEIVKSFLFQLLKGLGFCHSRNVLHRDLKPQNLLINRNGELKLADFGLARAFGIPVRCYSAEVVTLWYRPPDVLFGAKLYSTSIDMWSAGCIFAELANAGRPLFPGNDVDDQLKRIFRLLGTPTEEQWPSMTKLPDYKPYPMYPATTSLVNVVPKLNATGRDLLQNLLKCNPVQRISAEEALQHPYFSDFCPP
T1 sequence (Q15078 99-307 partner limits assumed): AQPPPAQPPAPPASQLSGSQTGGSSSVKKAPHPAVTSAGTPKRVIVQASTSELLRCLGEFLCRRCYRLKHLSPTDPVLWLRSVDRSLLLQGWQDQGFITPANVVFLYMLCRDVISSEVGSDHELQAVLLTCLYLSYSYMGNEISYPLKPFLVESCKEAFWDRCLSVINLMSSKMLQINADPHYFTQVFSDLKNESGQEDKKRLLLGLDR

Row | IC50 (CDK5/p25) | IC50 (CDK1/Cyclin B) | IC50 (CDK2/Cyclin A) | IC50 (CDK7/Cyclin H/MNAT1) | CDK1/CDK7: Selectivity of CDK7 inhibition over CDK1 inhibition (CDK7/Cyclin H/MNAT1) | CDK2/CDK7: Selectivity of CDK7 inhibition over CDK2 inhibition (CDK7/Cyclin H/MNAT1) | CDK5/CDK7: Selectivity of CDK7 inhibition over CDK5 inhibition (CDK7/Cyclin H/MNAT1) | Structure (SMILES)
1 | > 1 µM | > 1 µM | > 1 µM | 0.1 to 1 µM | B (B indicates 50 < [fold] ≤ 500) | B (B indicates 50 < [fold] ≤ 500) | B (B indicates 50 < [fold] ≤ 500) | CO[C@H]1CC[C@H](Nc2nc(NCc3c(C)cccc3-c3cc4cccc(NC(=O)/C=C/CN(C)C)c4[nH]3)n3ncc(C(C)C)c3n2)CC1 [Compound 129]
2 | > 1 µM | > 1 µM | > 1 µM | < 0.1 µM | A (A indicates [fold] > 500) | A (A indicates [fold] > 500) | A (A indicates [fold] > 500) | CO[C@H]1CNCC[C@@H]1CNc1nc(NCc2ccccc2-c2nccc3cc(NC(=O)/C=C/CN(C)C)ccc23)n2ncc(C(C)C)c2n1 [Compound 131]
3 | > 1 µM | > 1 µM | > 1 µM | < 0.1 µM | A (A indicates [fold] > 500) | A (A indicates [fold] > 500) | A (A indicates [fold] > 500) | CO[C@H]1CC[C@H](Nc2cc(NCc3ccccc3-c3nccc4cc(NC(=O)/C=C/CN(C)C)ccc34)n3ncc(C(C)C)c3n2)CC1 [Compound 132]
4 | > 1 µM | > 1 µM | > 1 µM | < 0.1 µM | A (A indicates [fold] > 500) | A (A indicates [fold] > 500) | A (A indicates [fold] > 500) | CNS(=O)(=O)C[C@H]1CC[C@H](Nc2nc(NCc3ccccc3-c3nccc4cc(NC(=O)/C=C/CN(C)C)ccc34)n3ncc(C(C)C)c3n2)CC1 [Compound 134]
5 | > 1 µM | > 1 µM | > 1 µM | 0.1 to 1 µM | B (B indicates 50 < [fold] ≤ 500) | B (B indicates 50 < [fold] ≤ 500) | B (B indicates 50 < [fold] ≤ 500) | CC#CC(=O)Nc1ccc2c(-c3ccccc3CNc3nc(N[C@H]4CC[C@H](OC)CC4)nc4c(C(C)C)cnn34)nccc2c1 [Compound 135]
6 | > 1 µM | > 1 µM | > 1 µM | 0.1 to 1 µM | B (B indicates 50 < [fold] ≤ 500) | B (B indicates 50 < [fold] ≤ 500) | B (B indicates 50 < [fold] ≤ 500) | COC1CCC(CNc2nc(NCc3ccccc3-c3nccc4cc(NC(=O)/C=C/CN(C)C)ccc34)n3ncc(C(C)C)c3n2)CC1 (stereo not drawn) [Compound 136]
7 | > 1 µM | > 1 µM | > 1 µM | < 0.1 µM | A (A indicates [fold] > 500) | A (A indicates [fold] > 500) | A (A indicates [fold] > 500) | Cc1cccc(-c2ccc3cccc(NC(=O)/C=C/CN(C)C)c3n2)c1CNc1nc(NCC2CCNCC2)nc2c(C(C)C)cnn12 [Compound 138]
8 | > 1 µM | > 1 µM | > 1 µM | < 0.1 µM | A (A indicates [fold] > 500) | A (A indicates [fold] > 500) | A (A indicates [fold] > 500) | Cc1cccc(-c2cc3cccc(NC(=O)/C=C/CN(C)C)c3[nH]2)c1CNc1nc(NCC2CCNCC2)nc2c(C(C)C)cnn12 [Compound 139]
9 | > 1 µM | > 1 µM | > 1 µM | 0.1 to 1 µM | B (B indicates 50 < [fold] ≤ 500) | B (B indicates 50 < [fold] ≤ 500) | B (B indicates 50 < [fold] ≤ 500) | CO[C@H]1CC[C@H](Nc2nc(NCc3c(C)cccc3-n3ccc4cc(NC(=O)/C=C/CN(C)C)ccc43)n3ncc(C(C)C)c3n2)CC1 [Compound 140]
10 | > 1 µM | > 1 µM | > 1 µM | < 0.1 µM | A (A indicates [fold] > 500) | A (A indicates [fold] > 500) | A (A indicates [fold] > 500) | C=C(F)C(=O)Nc1cccc2cc(-c3cccc(C)c3CNc3nc(NCC4CNCCO4)nc4c(C(C)C)cnn34)[nH]c12 (stereo not drawn) [Compound 141]
11 | > 1 µM | > 1 µM | > 1 µM | < 0.1 µM | A (A indicates [fold] > 500) | A (A indicates [fold] > 500) | A (A indicates [fold] > 500) | COC[C@H]1CC[C@H](Nc2nc(NCc3ccccc3-c3nccc4cc(NC(=O)/C=C/CN(C)C)ccc34)n3ncc(C(C)C)c3n2)CC1 [Compound 142]
12 | > 1 µM | > 1 µM | > 1 µM | 0.1 to 1 µM | B (B indicates 50 < [fold] ≤ 500) | B (B indicates 50 < [fold] ≤ 500) | B (B indicates 50 < [fold] ≤ 500) | C=C(F)C(=O)Nc1ccc2c(-c3ccccc3CNc3nc(N[C@H]4CC[C@H](CS(=O)(=O)NC)CC4)nc4c(C(C)C)cnn34)nccc2c1 [Compound 143]
13 | > 1 µM | > 1 µM | > 1 µM | < 0.1 µM | A (A indicates [fold] > 500) | A (A indicates [fold] > 500) | A (A indicates [fold] > 500) | CN[C@H]1CC[C@H](Nc2nc(NCc3ccccc3-c3nccc4cc(NC(=O)/C=C/CN(C)C)ccc34)n3ncc(C(C)C)c3n2)CC1 [Compound 145]
14 | > 1 µM | > 1 µM | > 1 µM | < 0.1 µM | A (A indicates [fold] > 500) | A (A indicates [fold] > 500) | A (A indicates [fold] > 500) | C=C(F)C(=O)Nc1ccc2c(-c3ccccc3CNc3nc(N[C@H]4CC[C@H](NC)CC4)nc4c(C(C)C)cnn34)nccc2c1 [Compound 146]
15 | > 1 µM | > 1 µM | > 1 µM | < 0.1 µM | B (B indicates 50 < [fold] ≤ 500) | B (B indicates 50 < [fold] ≤ 500) | B (B indicates 50 < [fold] ≤ 500) | C=C(F)C(=O)Nc1ccc2c(-c3ccccc3CNc3nc(NC[C@H]4CNCCO4)nc4c(C(C)C)cnn34)nccc2c1 [Compound 148]
